Tested on: 282377-053-R-J1-PDC complex spheroids, viability
Test: Anticancer human tumor 282377-053-R-J1-PDC patient-derived colon adenocarcinoma cell line growth inhibition [GQUAD]
Conditions: for IC50: curve of first compound; for viability, T/C: stronger effect = lower value
Outline: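 Tumor cells were grown as complex spheroids with HUVEC endothelial cells and mesenchymal stem cells as stroma. G-quadruplex stabilizers were combined with targeted agents over half-log dilutions from near the clinical Cmax, or from 10 microM.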

[1] = second compound 0.0316 µM, first compound 0.0316 µM
[2] = second compound 0.0316 µM, first compound 0.1 µM
[3] = second compound 0.0316 µM, first compound 0.316 µM
[4] = second compound 0.0316 µM, first compound 1 µM
[5] = second compound 0.0316 µM, first compound 3.16 µM
[6] = second compound 0.0316 µM, first compound 10 µM
[7] = second compound 0.1 µM, first compound 0.0316 µM
[8] = second compound 0.1 µM, first compound 0.1 µM
[9] = second compound 0.1 µM, first compound 0.316 µM
[10] = second compound 0.1 µM, first compound 1 µM
[11] = second compound 0.1 µM, first compound 3.16 µM
[12] = second compound 0.1 µM, first compound 10 µM
[13] = second compound 0.316 µM, first compound 0.0316 µM
[14] = second compound 0.316 µM, first compound 0.1 µM
[15] = second compound 0.316 µM, first compound 0.316 µM
[16] = second compound 0.316 µM, first compound 1 µM
[17] = second compound 0.316 µM, first compound 3.16 µM
[18] = second compound 0.316 µM, first compound 10 µM
[19] = second compound 1 µM, first compound 0.0316 µM
[20] = second compound 1 µM, first compound 0.1 µM
[21] = second compound 1 µM, first compound 0.316 µM
[22] = second compound 1 µM, first compound 1 µM
[23] = second compound 1 µM, first compound 3.16 µM
[24] = second compound 1 µM, first compound 10 µM
[25] = second compound 3.16 µM, first compound 0.0316 µM
[26] = second compound 3.16 µM, first compound 0.1 µM
[27] = second compound 3.16 µM, first compound 0.316 µM
[28] = second compound 3.16 µM, first compound 1 µM
[29] = second compound 3.16 µM, first compound 3.16 µM
[30] = second compound 3.16 µM, first compound 10 µM
[31] = second compound 10 µM, first compound 0.0316 µM
[32] = second compound 10 µM, first compound 0.1 µM
[33] = second compound 10 µM, first compound 0.316 µM
[34] = second compound 10 µM, first compound 1 µM
[35] = second compound 10 µM, first compound 3.16 µM
[36] = second compound 10 µM, first compound 10 µM
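Note: spheroids exposed to compounds for 7 days before readout.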
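Throughout, for viability, T/C: percent of vehicle DMSO control viability with 100% = untreated-like growth.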

## CCCS(=O)(=O)Nc1ccc(F)c(C(=O)c2c[nH]c3ncc(-c4ccc(Cl)cc4)cc23)c1F + CN(C)c1ccc(Nc2c3ccc(NC(=O)CCN4CCCC4)cc3nc3cc(NC(=O)CCN4CCCC4)ccc23)cc1
Second compound 0.0316 µM
  IC50: 4.49 µM
Second compound 0.1 µM
  IC50: 3.49 µM
Second compound 0.316 µM
  IC50: 2.96 µM
Second compound 1 µM
  IC50: 3.87 µM
Second compound 3.16 µM
  IC50: 3.32 µM
Second compound 10 µM
  IC50: 3.74 µM
[1]
  viability, T/C: 81%
[2]
  viability, T/C: 66%
[3]
  viability, T/C: 58%
[4]
  viability, T/C: 69.9%
[5]
  viability, T/C: 64.5%
[6]
  viability, T/C: 16.9%
[7]
  viability, T/C: 68.1%
[8]
  viability, T/C: 56%
[9]
  viability, T/C: 59.3%
[10]
  viability, T/C: 61.4%
[11]
  viability, T/C: 52.8%
[12]
  viability, T/C: 19.4%
[13]
  viability, T/C: 74.8%
[14]
  viability, T/C: 65.7%
[15]
  viability, T/C: 74.7%
[16]
  viability, T/C: 49.3%
[17]
  viability, T/C: 57.2%
[18]
  viability, T/C: 15.6%
[19]
  viability, T/C: 79.8%
[20]
  viability, T/C: 60.9%
[21]
  viability, T/C: 89.3%
[22]
  viability, T/C: 57.6%
[23]
  viability, T/C: 59.2%
[24]
  viability, T/C: 23.6%
[25]
  viability, T/C: 73.3%
[26]
  viability, T/C: 72.5%
[27]
  viability, T/C: 68.7%
[28]
  viability, T/C: 67.1%
[29]
  viability, T/C: 50.6%
[30]
  viability, T/C: 21.6%
[31]
  viability, T/C: 82.1%
[32]
  viability, T/C: 70.6%
[33]
  viability, T/C: 75.6%
[34]
  viability, T/C: 52.3%
[35]
  viability, T/C: 65%
[36]
  viability, T/C: 14.2%

## Cc1[nH]c2ccccc2c1CCNCc1ccc(/C=C/C(=O)NO)cc1 + CN(C)c1ccc(Nc2c3ccc(NC(=O)CCN4CCCC4)cc3nc3cc(NC(=O)CCN4CCCC4)ccc23)cc1
Second compound 0.0316 µM
  IC50: 0.189 µM
Second compound 0.1 µM
  IC50: 0.189 µM
Second compound 0.316 µM
  IC50: 0.179 µM
Second compound 1 µM
  IC50: 0.189 µM
Second compound 3.16 µM
  IC50: 0.173 µM
Second compound 10 µM
  IC50: 0.147 µM
Second compound 0.0316 µM, first compound 0.000999 µM
  viability, T/C: 106%
Second compound 0.0316 µM, first compound 0.00316 µM
  viability, T/C: 91.1%
Second compound 0.0316 µM, first compound 0.00999 µM
  viability, T/C: 109%
[1]
  viability, T/C: 110%
Second compound 0.0316 µM, first compound 0.0999 µM
  viability, T/C: 106%
[3]
  viability, T/C: 6.18%
Second compound 0.1 µM, first compound 0.000999 µM
  viability, T/C: 97.3%
Second compound 0.1 µM, first compound 0.00316 µM
  viability, T/C: 108%
Second compound 0.1 µM, first compound 0.00999 µM
  viability, T/C: 114%
[7]
  viability, T/C: 89.3%
Second compound 0.1 µM, first compound 0.0999 µM
  viability, T/C: 105%
[9]
  viability, T/C: 7.41%
Second compound 0.316 µM, first compound 0.000999 µM
  viability, T/C: 91.8%
Second compound 0.316 µM, first compound 0.00316 µM
  viability, T/C: 86.4%
Second compound 0.316 µM, first compound 0.00999 µM
  viability, T/C: 91.4%
[13]
  viability, T/C: 116%
Second compound 0.316 µM, first compound 0.0999 µM
  viability, T/C: 99.6%
[15]
  viability, T/C: 3.85%
Second compound 1 µM, first compound 0.000999 µM
  viability, T/C: 90.2%
Second compound 1 µM, first compound 0.00316 µM
  viability, T/C: 98.5%
Second compound 1 µM, first compound 0.00999 µM
  viability, T/C: 108%
[19]
  viability, T/C: 121%
Second compound 1 µM, first compound 0.0999 µM
  viability, T/C: 103%
[21]
  viability, T/C: 7.41%
Second compound 3.16 µM, first compound 0.000999 µM
  viability, T/C: 92.9%
Second compound 3.16 µM, first compound 0.00316 µM
  viability, T/C: 95.1%
Second compound 3.16 µM, first compound 0.00999 µM
  viability, T/C: 101%
[25]
  viability, T/C: 123%
Second compound 3.16 µM, first compound 0.0999 µM
  viability, T/C: 89.8%
[27]
  viability, T/C: 6.57%
Second compound 10 µM, first compound 0.000999 µM
  viability, T/C: 78.5%
Second compound 10 µM, first compound 0.00316 µM
  viability, T/C: 103%
Second compound 10 µM, first compound 0.00999 µM
  viability, T/C: 94.6%
[31]
  viability, T/C: 92.8%
Second compound 10 µM, first compound 0.0999 µM
  viability, T/C: 73.6%
[33]
  viability, T/C: 3.92%

## O=c1[nH]cc(F)c(=O)[nH]1 + CN(C)c1ccc(Nc2c3ccc(NC(=O)CCN4CCCC4)cc3nc3cc(NC(=O)CCN4CCCC4)ccc23)cc1
Second compound 0.0316 µM
  IC50: > 10 µM
Second compound 0.1 µM
  IC50: > 10 µM
Second compound 0.316 µM
  IC50: > 10 µM
Second compound 1 µM
  IC50: > 10 µM
Second compound 3.16 µM
  IC50: > 10 µM
Second compound 10 µM
  IC50: > 10 µM
[1]
  viability, T/C: 95.5%
[2]
  viability, T/C: 87.1%
[3]
  viability, T/C: 110%
[4]
  viability, T/C: 81%
[5]
  viability, T/C: 73.4%
[6]
  viability, T/C: 74.1%
[7]
  viability, T/C: 101%
[8]
  viability, T/C: 93.1%
[9]
  viability, T/C: 104%
[10]
  viability, T/C: 88.8%
[11]
  viability, T/C: 74.5%
[12]
  viability, T/C: 73.2%
[13]
  viability, T/C: 106%
[14]
  viability, T/C: 94.3%
[15]
  viability, T/C: 106%
[16]
  viability, T/C: 96%
[17]
  viability, T/C: 67.8%
[18]
  viability, T/C: 73.8%
[19]
  viability, T/C: 108%
[20]
  viability, T/C: 94.4%
[21]
  viability, T/C: 106%
[22]
  viability, T/C: 89.9%
[23]
  viability, T/C: 77.8%
[24]
  viability, T/C: 69%
[25]
  viability, T/C: 83.1%
[26]
  viability, T/C: 75.7%
[27]
  viability, T/C: 89.2%
[28]
  viability, T/C: 79.1%
[29]
  viability, T/C: 68.2%
[30]
  viability, T/C: 64.5%
[31]
  viability, T/C: 92.8%
[32]
  viability, T/C: 81.3%
[33]
  viability, T/C: 88.5%
[34]
  viability, T/C: 81.7%
[35]
  viability, T/C: 70.1%
[36]
  viability, T/C: 57.9%

Reference: PubChem BioAssay AID2060501 (Molecular Pharmacology Branch, DTP, NCI, 2025)
